# Values quoted from earlier work, collected in paper PMC10998826 (EJNMMI Research, 2024).
# Details: active metabolite of sacubitril; cited from earlier work
# Procedure: Sacubitril (AHU377) is a potent inhibitor of the NEP. The combination of sacubitril and the angiotensin-receptor blocker valsartan (Entresto®) is effective in reducing the risks of death and of hospitalization for heart failure and is approved for this indication in numerous countries. The highest blood plasma concentration of its active metabolite, LBQ657, is measured around two hours after oral intake.
compound,measurement,value
C[C@H](C[C@@H](Cc1ccc(-c2ccccc2)cc1)NC(=O)CCC(=O)O)C(=O)O [LBQ657],Time of highest blood plasma concentration after oral intake,around two
